Drawing on US11834453B2, “Substituted pyrimido[5,4-d]pyrimidines as HER2 inhibitors” (Array BioPharma Inc., priority 2020, dated 2023), this text covers IC50 for 13 compounds.

Assay [1] addresses ErbB2 insYVMA (HER2-YVMA, SEQ ID NO: 2) (Homo sapiens, UniProt P04626, INS775YVMA/P1170A). As to the kind of experiment: biochemical. To be noted: ErbB2 insYVMA enzyme assay.
Another assay concerns the target ErbB2 WT (Homo sapiens (Human), UniProt P04626). Description: ErbB enzyme assay (CisBio HTRF KinEASE-TK), Assay 2. The format is biochemical. The method in brief: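 ErbB2 phosphorylates 250 nM biotin-TK substrate at 1 mM ATP in 25 mM HEPES pH 7.4, 10 mM MgCl2, 0.01% Triton X-100 and 2% DMSO, for 30 min at 22 °C. Product is detected by HTRF with Sa-XL665 and TK-Ab-Cryptate. Percent of control is set by DMSO-only wells and pre-quenched wells.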
(In general: TR-FRET usually uses a lanthanide donor and a delayed reading to cut background.)

A further assay deals with EGFR (Homo sapiens (Human), UniProt P00533). As to the kind of experiment: ErbB enzyme assay (CisBio HTRF KinEASE-TK), Assay 3. The format is biochemical. The method in brief: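 Kinase + 250 nM biotin TK-substrate, 1 mM ATP, cpd (3-fold dil.), HEPES pH 7.4/10 mM MgCl2/0.01% Triton/2% DMSO; 30 min 22 °C. Quench w/ Sa-XL665 + TK-Ab-Cryptate, 1 h, HTRF. IC50 = 50 POC on 4PL fit.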
EGFR, sequence (P00533 25-1210): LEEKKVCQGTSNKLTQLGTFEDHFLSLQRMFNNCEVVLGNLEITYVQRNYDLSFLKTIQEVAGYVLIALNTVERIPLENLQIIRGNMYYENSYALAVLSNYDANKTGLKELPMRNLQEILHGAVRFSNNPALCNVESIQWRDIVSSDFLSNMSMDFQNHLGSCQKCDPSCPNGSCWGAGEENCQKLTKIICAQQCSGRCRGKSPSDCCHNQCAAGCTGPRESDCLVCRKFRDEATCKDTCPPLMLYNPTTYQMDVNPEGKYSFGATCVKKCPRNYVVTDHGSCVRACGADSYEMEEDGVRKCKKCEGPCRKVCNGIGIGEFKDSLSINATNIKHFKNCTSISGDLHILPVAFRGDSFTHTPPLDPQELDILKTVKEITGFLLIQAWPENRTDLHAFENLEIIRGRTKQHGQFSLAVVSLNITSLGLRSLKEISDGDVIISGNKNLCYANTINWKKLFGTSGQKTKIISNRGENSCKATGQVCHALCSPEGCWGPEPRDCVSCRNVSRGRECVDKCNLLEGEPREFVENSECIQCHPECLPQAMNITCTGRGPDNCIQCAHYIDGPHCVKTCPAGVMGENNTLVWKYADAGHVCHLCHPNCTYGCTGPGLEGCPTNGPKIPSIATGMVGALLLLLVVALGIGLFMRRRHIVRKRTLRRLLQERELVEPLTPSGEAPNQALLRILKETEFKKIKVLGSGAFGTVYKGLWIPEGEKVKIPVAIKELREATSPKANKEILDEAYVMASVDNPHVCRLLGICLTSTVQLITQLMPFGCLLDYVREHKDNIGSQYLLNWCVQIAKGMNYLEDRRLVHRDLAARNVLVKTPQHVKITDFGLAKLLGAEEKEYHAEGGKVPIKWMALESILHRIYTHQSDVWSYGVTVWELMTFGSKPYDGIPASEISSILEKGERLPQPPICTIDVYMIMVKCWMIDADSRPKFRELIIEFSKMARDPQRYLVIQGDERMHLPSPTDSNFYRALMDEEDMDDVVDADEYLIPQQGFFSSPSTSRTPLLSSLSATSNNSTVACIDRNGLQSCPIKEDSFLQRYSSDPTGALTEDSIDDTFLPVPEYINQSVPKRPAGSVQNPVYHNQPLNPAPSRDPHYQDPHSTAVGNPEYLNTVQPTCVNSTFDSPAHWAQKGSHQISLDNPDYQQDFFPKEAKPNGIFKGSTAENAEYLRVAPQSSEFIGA

The target in assay [2] is ErbB2 with Exon 20 YVMA insertion (HER2-YVMA) (Homo sapiens (Human), UniProt P04626, INS775YVMA). As to the kind of experiment: Cellular phosphorylation assay, constitutive ErbB2 phosphorylation (Y1196) in engineered NIH 3T3 cells, Assay 4. The assay is classed as cell-based. The essentials:
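Engineered NIH 3T3 cells expressing HER2-YVMA treated with compounds 1 h at 37 °C, then formaldehyde-fixed and methanol-permeabilized. pErbB2 Y1196 detected by in-cell infrared immunofluorescence, normalized to GAPDH. IC50 from the normalized curves.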

A further assay has as its target EGFR wild type (EGFR WT) (Homo sapiens (Human), UniProt P00533). As to the kind of experiment: Cellular phosphorylation assay, EGF-stimulated EGFR phosphorylation in engineered NIH 3T3 cells, Phospho-EGFR DuoSet IC ELISA, Assay 5. The format is cell-based. The essentials:
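NIH 3T3 cells expressing EGFR WT (20,000/well, attached overnight) were exposed to serially diluted compound for 1 h at 37 °C, then stimulated with 100 ng/ml rEGF for 10 min. Phospho-EGFR in lysates measured by sandwich ELISA optical density; IC50 from curves.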
For orientation: ELISA stands for enzyme-linked immunosorbent assay.

Like-named read-outs stand apart in the source and are kept apart here. A value given as a limit tells only on which side of the number the result lay.

ErbB2 insYVMA (HER2-YVMA, SEQ ID NO: 2), sequence (P04626 with tags, fused parts or gaps INS775YVMA/P1170A limits assumed): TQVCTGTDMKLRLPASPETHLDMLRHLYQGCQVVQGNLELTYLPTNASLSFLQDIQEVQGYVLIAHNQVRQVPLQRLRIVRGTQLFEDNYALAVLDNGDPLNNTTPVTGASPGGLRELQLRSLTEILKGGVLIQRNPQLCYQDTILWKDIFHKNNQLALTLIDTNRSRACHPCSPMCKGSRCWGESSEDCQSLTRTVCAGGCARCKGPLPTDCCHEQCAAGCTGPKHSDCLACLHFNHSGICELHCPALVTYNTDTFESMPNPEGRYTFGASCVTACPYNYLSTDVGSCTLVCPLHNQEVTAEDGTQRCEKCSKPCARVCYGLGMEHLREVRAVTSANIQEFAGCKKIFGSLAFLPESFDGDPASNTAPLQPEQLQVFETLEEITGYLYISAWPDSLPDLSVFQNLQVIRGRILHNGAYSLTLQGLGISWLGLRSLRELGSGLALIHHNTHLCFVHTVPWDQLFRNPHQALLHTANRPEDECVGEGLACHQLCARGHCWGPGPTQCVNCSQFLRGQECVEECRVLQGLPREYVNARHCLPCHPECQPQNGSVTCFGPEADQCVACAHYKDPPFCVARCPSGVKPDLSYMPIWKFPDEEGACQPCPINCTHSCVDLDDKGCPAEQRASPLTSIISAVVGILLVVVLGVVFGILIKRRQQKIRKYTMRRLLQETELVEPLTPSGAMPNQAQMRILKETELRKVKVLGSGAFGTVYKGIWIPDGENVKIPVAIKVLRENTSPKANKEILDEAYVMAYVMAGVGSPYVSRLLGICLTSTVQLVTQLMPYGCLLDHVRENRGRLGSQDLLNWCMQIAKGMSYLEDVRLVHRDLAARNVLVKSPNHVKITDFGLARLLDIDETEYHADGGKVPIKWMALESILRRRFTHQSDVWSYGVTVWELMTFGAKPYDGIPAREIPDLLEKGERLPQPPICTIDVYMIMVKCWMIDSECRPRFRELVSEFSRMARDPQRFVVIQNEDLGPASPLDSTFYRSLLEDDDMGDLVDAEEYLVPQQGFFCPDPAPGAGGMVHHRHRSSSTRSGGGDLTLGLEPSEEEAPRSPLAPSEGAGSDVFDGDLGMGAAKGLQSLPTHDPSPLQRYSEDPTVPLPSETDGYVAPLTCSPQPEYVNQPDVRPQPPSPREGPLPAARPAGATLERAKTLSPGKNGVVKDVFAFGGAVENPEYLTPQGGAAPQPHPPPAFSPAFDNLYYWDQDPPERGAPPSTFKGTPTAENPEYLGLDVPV
EGFR wild type (EGFR WT), sequence (P00533 25-1210): as the sequence (P00533 25-1210) above
ErbB2 WT, sequence (P04626 23-1255): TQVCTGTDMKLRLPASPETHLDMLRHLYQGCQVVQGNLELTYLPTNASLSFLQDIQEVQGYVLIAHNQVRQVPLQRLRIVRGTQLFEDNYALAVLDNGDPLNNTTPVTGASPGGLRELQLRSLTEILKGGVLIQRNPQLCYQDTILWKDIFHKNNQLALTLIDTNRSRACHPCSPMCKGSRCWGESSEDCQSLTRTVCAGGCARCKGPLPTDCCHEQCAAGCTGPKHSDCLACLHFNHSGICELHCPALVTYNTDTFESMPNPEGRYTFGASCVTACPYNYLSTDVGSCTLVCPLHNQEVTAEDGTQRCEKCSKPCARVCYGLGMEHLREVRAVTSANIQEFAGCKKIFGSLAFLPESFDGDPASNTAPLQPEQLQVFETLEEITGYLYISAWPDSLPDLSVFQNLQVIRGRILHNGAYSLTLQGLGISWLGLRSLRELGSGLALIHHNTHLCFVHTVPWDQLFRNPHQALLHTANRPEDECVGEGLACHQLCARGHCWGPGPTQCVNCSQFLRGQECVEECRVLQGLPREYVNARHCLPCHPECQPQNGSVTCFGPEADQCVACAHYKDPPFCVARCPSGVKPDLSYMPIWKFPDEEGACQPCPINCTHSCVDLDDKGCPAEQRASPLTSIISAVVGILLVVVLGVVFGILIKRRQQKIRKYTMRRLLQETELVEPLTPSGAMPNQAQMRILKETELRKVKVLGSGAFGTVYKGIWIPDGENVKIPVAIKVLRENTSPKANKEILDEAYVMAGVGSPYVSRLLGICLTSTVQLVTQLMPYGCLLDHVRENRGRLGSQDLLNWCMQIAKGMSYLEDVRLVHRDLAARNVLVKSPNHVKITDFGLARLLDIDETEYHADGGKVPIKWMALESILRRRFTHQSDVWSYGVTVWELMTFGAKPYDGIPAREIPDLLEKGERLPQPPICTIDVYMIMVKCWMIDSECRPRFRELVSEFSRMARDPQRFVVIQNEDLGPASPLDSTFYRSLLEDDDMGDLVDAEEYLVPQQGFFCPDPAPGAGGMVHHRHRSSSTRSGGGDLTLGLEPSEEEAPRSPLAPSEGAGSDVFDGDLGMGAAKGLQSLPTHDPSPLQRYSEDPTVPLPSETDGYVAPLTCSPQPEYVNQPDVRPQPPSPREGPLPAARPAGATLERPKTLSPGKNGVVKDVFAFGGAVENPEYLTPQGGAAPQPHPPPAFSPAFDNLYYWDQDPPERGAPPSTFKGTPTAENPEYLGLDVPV

Take `Cn1cnc2cc(Oc3ccc(Nc4ncnc5cnc(N6CCN[C@H](C(F)(F)F)C6)nc45)cc3Cl)ccc21` [Example 445]: the IC50 – broadly, the point on the concentration scale where inhibition reaches its midpoint – is 65 nM in assay [1] (read-out: Assay 1 IC50); 64.5 nM at ErbB2 WT; 4.5 µM at EGFR; 44.2 nM in assay [2]; at least 5 µM against EGFR wild type (EGFR WT).
In the case of `Cn1cnc2cc(Oc3ccc(Nc4ncnc5cnc(N6C[C@@H]7CC[C@H]6CO7)nc45)cc3Cl)ccc21` [Example 446], the IC50 is 20.7 nM in assay [1] (read-out: Assay 1 IC50); 134 nM against ErbB2 WT; at least 10 µM against EGFR; 123 nM in assay [2]; at least 5 µM against EGFR wild type (EGFR WT).
`Cn1cnc2cc(Oc3ccc(Nc4ncnc5cnc(N6CC7CCC(C6)O7)nc45)cc3Cl)ccc21` [Example 447]: the concentration for half-maximal inhibition (IC50) in assay [1] (Assay 1 IC50 (nM)) was 46.8 nM; against ErbB2 WT it was 91 nM; at EGFR it was at least 10 µM; in assay [2] it was 12.2 nM; against EGFR wild type (EGFR WT), at least 5 µM.
With `Cn1cnc2cc(Oc3ccc(Nc4ncnc5cnc(N6CCOC(C)(C)C6)nc45)cc3Cl)ccc21` [Example 448], the IC50 in assay [1] (read-out: Assay 1 IC50) is 75.9 nM; on ErbB2 WT it was 143 nM; on EGFR, at least 10 µM; in assay [2] it was 40.8 nM; at EGFR wild type (EGFR WT) it was at least 5 µM.
`Cn1cnc2cc(Oc3ccc(Nc4ncnc5cnc(N6CCOC7(CC7)C6)nc45)cc3Cl)ccc21` [Example 449]: the IC50 is 157 nM in assay [1] (read-out: Assay 1 IC50); 152 nM at ErbB2 WT; at least 10 µM against EGFR; 6.2 nM in assay [2]; at least 5 µM against EGFR wild type (EGFR WT).
Regarding `C[C@H]1CN(c2ncc3ncnc(Nc4ccc(Oc5ccc6c(c5)ncn6C)c(Cl)c4)c3n2)CCO1` [Example 450], the concentration for half-maximal inhibition (IC50) in assay [1] (read-out: Assay 1 IC50) was 26.1 nM; against ErbB2 WT, 55 nM; against EGFR, 4.01 µM; in assay [2], 13.4 nM; against EGFR wild type (EGFR WT), at least 5 µM.
Consider `Cn1cnc2cc(Oc3ccc(Nc4ncnc5cnc(N6C[C@H]7CC[C@@H]6CO7)nc45)cc3Cl)ccc21` [Example 451], for which the IC50 was 42.7 nM in assay [1] (Assay 1 IC50 (nM)); 63.8 nM on ErbB2 WT; 3.5 µM against EGFR; 24.7 nM in assay [2]; at least 5 µM against EGFR wild type (EGFR WT).
For the compound `C[C@@H]1CN(c2ncc3ncnc(Nc4ccc(Oc5ccc6c(c5)ncn6C)c(Cl)c4)c3n2)CCO1` [Example 452], the IC50 is 47.6 nM in assay [1] (read-out: Assay 1 IC50); 115 nM at ErbB2 WT; at least 10 µM at EGFR; 20.2 nM in assay [2]; at least 5 µM at EGFR wild type (EGFR WT).
Regarding `Cc1c(Oc2ccc3c(c2)ncn3C)ccc(Nc2ncnc3cnc(N4CC[C@H]4C(C)(C)O)nc23)c1F` [Example 453], the IC50 is 64.6 nM in assay [1] (read-out: Assay 1 IC50); 474 nM against ErbB2 WT; at least 10 µM against EGFR; 383 nM in assay [2]; at least 5 µM at EGFR wild type (EGFR WT).
For `Cn1cnc2cc(Oc3ccc(Nc4ncnc5cnc(N6C[C@H]7C[C@@H]6CO7)nc45)cc3Cl)ccc21` [Example 455], the half-maximal inhibitory concentration (IC50) is 48.7 nM in assay [1] (read-out: Assay 1 IC50); 176 nM at ErbB2 WT; at least 10 µM at EGFR; 58.2 nM in assay [2]; at least 5 µM on EGFR wild type (EGFR WT).
On the same counts, the results for `CN(CC(C)(C)O)c1ncc2ncnc(Nc3ccc(Oc4ccc5c(c4)ncn5C)c(Cl)c3)c2n1` [Example 456] are 25.9 nM, 69.8 nM, 4.52 µM, 47.6 nM and at least 5 µM.
In the case of `Cc1c(Oc2ccc3c(c2)ncn3C)ccc(Nc2ncnc3cnc(N4C[C@H]5C[C@@H]4CO5)nc23)c1F` [Example 457], the half-maximal inhibitory concentration (IC50) was 25.1 nM in assay [1] (read-out: Assay 1 IC50); 83.9 nM at ErbB2 WT; 8.24 µM against EGFR; 50.6 nM in assay [2]; at least 5 µM against EGFR wild type (EGFR WT).
On to `Cc1c(Oc2ccc3c(c2)ncn3C)ccc(Nc2ncnc3cnc(N4CC[C@H](O)C4)nc23)c1F` [Example 458], for which the IC50 in assay [1] (read-out: Assay 1 IC50) was 13.3 nM; against ErbB2 WT it was 28 nM; against EGFR, 1.63 µM; in assay [2] it was 75.2 nM; at EGFR wild type (EGFR WT), at least 5 µM.
